Reference: publication PMC5571739 (Journal of neuro-oncology, 2016)
Values joined by “and” are separate entries in the source; they are usually repeats but may differ in a detail not shown here. Equal entries are not always repeated.

Tests used:
[1] = test system: hepatic CYP450 enzyme system; details: cited from earlier work
[2] = Plasma pharmacokinetics of RO4929097 alone and with bevacizumab; type: in vivo, human; details: for AUC24: plasma, geometric mean; for AUC24 Δ% / Cmax Δ%: day 15 with bevacizumab vs day 1 alone
[3] = test system: patients with recurrent malignant gliomas

| Compound | Substrate or modulator of hepatic CYP450 enzyme system [1] | AUC24 ([2]; 5 mg oral, day 1, no concurrent bevacizumab) | AUC24 ([2]; 5 mg oral, day 15, concurrent bevacizumab) | AUC24 Δ% ([2]; 5 mg) [%] | AUC24 ([2]; 10 mg oral, day 1, no concurrent bevacizumab) | AUC24 Δ% ([2]; 10 mg) [%] | Cmax Δ% ([2]; 10 mg) [%] | AUC24 ([2]; 20 mg oral, day 1, no concurrent bevacizumab) | AUC24 ([2]; 20 mg oral, day 15, concurrent bevacizumab) | AUC24 Δ% ([2]; 20 mg) [%] | Cmax Δ% ([2]; 20 mg) [%] | Dose proportionality of mean Cmax ([2]; escalation of the dose from 5 to 20 mg) | Definitive maximum tolerated dose ([3]; in combination with bevacizumab, drug production halted) | Recommended phase II dose ([3]; orally 3 days on/4 days off each week in combination with bevacizumab) [mg/kg] |
| --- | --- | --- | --- | --- | --- | --- | --- | --- | --- | --- | --- | --- | --- | --- |
| Bevacizumab: monoclonal antibody directed against vascular endothelial growth factor | not a substrate or modulator | – | – | – | – | – | – | – | – | – | – | – | – | – |
| CC(C)(C(=O)NCC(F)(F)C(F)(F)F)C(=O)N[C@@H]1C(=O)Nc2ccccc2-c2ccccc21 [RO4929097] | – | 1,215 ng●h/mL | 1,212 ng●h/mL | −0.2 | 2,385 ± 606 ng●h/mL and 2,385 ng●h/mL | −1.5 | 7.0 | 2,232 ± 781 ng●h/mL and 2,232 ng●h/mL | 2,555 ng●h/mL | 14.5 | 1.9 | increased less than proportionately | not identified | 10 |
